Laboratory results taken from patent publication US10632125B2, “MTH1 inhibitors for treatment of inflammatory and autoimmune conditions” (THOMAS HELLEDAYS STIFTELSE FÖR MEDICINSK FORSKNING, priority 2014, dated 2020).

target: MTH1 (Homo sapiens, UniProt P36639); assay: MTH1 enzymatic assay (malachite green, coupled to pyrophosphatase); assay type: biochemical; conditions: not given
Procedure: MTH1 catalyzes the hydrolysis of dGTP to dGMP and PPi. By coupling the reaction to pyrophosphatase added in excess PPi is converted to Pi that can be detected by using the malachite green assay reagent. […] 96-well method: Briefly, the compound to be analyzed is diluted in DMSO in a 1:3 dilution series generating 12 different compound concentrations giving a final DMSO concentration of 1% in the assay well. MTH1 diluted in assay buffer (100 mM Tris-acetate, 40 mM NaCl, 10 mM magnesium acetate, 1 mM DTT and 0.005% Tween 20) fortified with E. coli pyrophosphatase (0.2 U/ml) is added to a final concentration of 6 nM. dGTP diluted in assay buffer is added to a final concentration of 100 μM. The reaction mixture is incubated for 15 minutes at 22° C. To 100 μl reaction mixture, 25 μl Malachite green assay regent (0.095% Malachite green in 17% H2SO4, 1.5% Ammonium molybdate, 0.17% Tween 20) is added, followed by incubation with shaking for 15 minutes at 22° C. The absorbance of the assay plate is read at 630 nm using a Hidex Sense Multilabel plate reader. The IC50 value is determined by fitting a dose response curve to the data points using nonlinear regression analysis and the equation Y=Bottom+(Top-Bottom)/(1+10^((Log IC50−X)*HillSlope)), where Y is the read absorbance at 630 nm and X is log [compound].
384-Well Method: The compounds to be tested are nano-dispensed, in 11 concentrations, directly in assay plates, with a final DMSO concentration <1%. The protocol and the reaction mixture are the same as for the 96-well assay, with a total reaction volume of 50 μl/well to which 10 μl of Malachite green reagent is added. All additions to the assay plates are made with multidrop.

IC50, < 200 nM:
CNc1cc(-c2cccc(Cl)c2Cl)nc(N)n1 [Example 38, 6-(2,3-dichlorophenyl)-4-N-methylpyrimidine-2,4-diamine]

same assay, conditions: dGTP 100 μM, MTH1 6 nM; 96- or 384-well format; read-out: IC50

IC50, < 200 nM:
Nc1nc(NC2CCCCC2)cc(-c2ccccc2)n1 [Example 1, 4-N-cyclohexyl-6-phenylpyrimidine-2,4-diamine]
CCNc1cc(-c2ccccc2)nc(N)n1 [Example 2, 4-N-ethyl-6-phenylpyrimidine-2,4-diamine]
Nc1nc(NC2CCOCC2)cc(-c2ccccc2)n1 [Example 7, 4-N-(oxan-4-yl)-6-phenylpyrimidine-2,4-diamine]
Nc1nc(NC2CC2)cc(-c2ccc(Cl)cc2)n1 [Example 13, 6-(4-chlorophenyl)-4-N-cyclopropylpyrimidine-2,4-diamine]
Nc1nc(NC2CC2)cc(-c2cccc(C(F)(F)F)c2)n1 [Example 16, 4-N-cyclopropyl-6-[3-(trifluoromethyl)phenyl]pyrimidine-2,4-diamine]
Nc1nc(NC2CC2)cc(-c2cccc(Cl)c2)n1 [Example 19, 6-(3-chlorophenyl)-4-N-cyclopropylpyrimidine-2,4-diamine]
CNc1cc(-c2cn(S(=O)(=O)c3ccc(C)cc3)c3ccccc23)nc(N)n1 [Example 23, 4-N-methyl-6-[1-(4-methylbenzenesulfonyl)-1H-indol-3-yl]pyrimidine-2,4-diamine]
CNc1cc(-c2cn(S(=O)(=O)c3ccccc3)c3ccccc23)nc(N)n1 [Example 26, 6-[1-(benzenesulfonyl)-1H-indol-3-yl]-4-N-methylpyrimidine-2,4-diamine]
Cc1ccc(S(=O)(=O)n2cc(-c3cc(NC4CC4)nc(N)n3)c3ccccc32)cc1 [Example 27, 4-N-cyclopropyl-6-[1-(4-methylbenzenesulfonyl)-1H-indol-3-yl]pyrimidine-2,4-diamine]
Nc1nc(NC2CC2)cc(-c2cn(S(=O)(=O)c3ccccc3)c3ccccc23)n1 [Example 28, 6-[1-(benzenesulfonyl)-1H-indol-3-yl]-4-N-cyclopropylpyrimidine-2,4-diamine]
CNc1cc(-c2cn(S(=O)(=O)c3ccccc3)c3ncccc23)nc(N)n1 [Example 29, 6-[1-(benzenesulfonyl)-1H-pyrrolo[2,3-b]pyridin-3-yl]-4-N-methylpyrimidine-2,4-diamine]
CNc1cc(-c2cccc3c2ccn3S(=O)(=O)c2ccccc2)nc(N)n1 [Example 30, 6-[1-(benzenesulfonyl)-1H-indol-4-yl]-4-N-methylpyrimidine-2,4-diamine]
CNc1cc(-c2ccc(OC)cc2)nc(N)n1 [Example 33, 6-(4-methoxyphenyl)-4-N-methylpyrimidine-2,4-diamine]
CNc1cc(-c2cc(C(F)(F)F)cc(C(F)(F)F)c2)nc(N)n1 [Example 34, 6-[3,5-bis(trifluoromethyl)phenyl]-4-N-methylpyrimidine-2,4-diamine]
CNc1cc(-c2cccc(C(F)(F)F)c2)nc(N)n1 [Example 37, 4-N-methyl-6-[3-(trifluoromethyl)phenyl]pyrimidine-2,4-diamine]
CNc1cc(-c2ccc3c(c2)OCO3)nc(N)n1 [Example 39, 6-(2H-1,3-benzodioxol-5-yl)-4-N-methylpyrimidine-2,4-diamine]
CNc1cc(-c2cccc(NC(C)=O)c2)nc(N)n1 [Example 41, N-{3-[2-amino-6-(methylamino)pyrimidin-4-yl]phenyl}acetamide]
CNc1cc(-c2ccc(NC(C)=O)cc2)nc(N)n1 [Example 47, N-{4-[2-amino-6-(methylamino)pyrimidin-4-yl]phenyl}acetamide]
